Assays:
HDAC10 = target: T1, HDAC10 (Homo sapiens, UniProt Q969S8); test: Fluorogenic HDAC deacetylase assay (BPS Bioscience); assay type: biochemical; conditions: read-out: % inhibition @ 10 uM
T1 construct: purchased BPS Bioscience 50060

[1] = system: implanted tumors (malignant glioma); design: method as in PMID 26409450; conditions: direct injection into implanted tumors; cited from earlier work
HDAC1 = target: T2, HDAC1 (Homo sapiens, UniProt Q13547); test: Fluorogenic HDAC deacetylase assay (BPS Bioscience); assay type: biochemical; conditions: read-out: % inhibition @ 10 uM
T2 construct: purchased BPS Bioscience 50051
T2 sequence (Q13547 whole entry): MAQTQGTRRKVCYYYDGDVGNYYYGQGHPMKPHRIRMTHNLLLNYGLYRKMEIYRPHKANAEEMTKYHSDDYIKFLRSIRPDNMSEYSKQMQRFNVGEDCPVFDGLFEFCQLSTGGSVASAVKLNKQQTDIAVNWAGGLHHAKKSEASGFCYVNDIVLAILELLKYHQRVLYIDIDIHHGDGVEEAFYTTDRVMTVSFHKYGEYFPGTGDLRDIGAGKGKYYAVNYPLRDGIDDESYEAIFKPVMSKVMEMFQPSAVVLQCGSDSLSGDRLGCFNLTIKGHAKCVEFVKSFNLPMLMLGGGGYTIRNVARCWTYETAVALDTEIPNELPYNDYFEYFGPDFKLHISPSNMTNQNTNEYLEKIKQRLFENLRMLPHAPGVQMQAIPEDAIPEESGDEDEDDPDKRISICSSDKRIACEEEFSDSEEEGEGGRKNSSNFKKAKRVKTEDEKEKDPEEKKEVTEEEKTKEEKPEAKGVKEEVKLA

CFA-affected animals = system: CFA-affected animals; design: method as in PMID 20846436; conditions: cited from earlier work
[2] = system: pulmonary arterial hypertension in a rat model; design: method as in earlier work; conditions: daily injections following monocrotaline; after 4 weeks of treatment; cited from earlier work
[3] = Aqueous solubility in the NCI60 assay conditions; assay type: physicochemical
Description: (§1) The reason for the lack of activity after dissolution in DMSO has not been pursued further, but DMSO was eliminated in all subsequent assay systems.

HDAC8 = target: T3, HDAC8 (Homo sapiens, UniProt Q9BY41); test: Fluorogenic HDAC deacetylase assay (BPS Bioscience); assay type: biochemical
T3 construct: purchased BPS Bioscience 50008
T3 sequence (Q9BY41 whole entry): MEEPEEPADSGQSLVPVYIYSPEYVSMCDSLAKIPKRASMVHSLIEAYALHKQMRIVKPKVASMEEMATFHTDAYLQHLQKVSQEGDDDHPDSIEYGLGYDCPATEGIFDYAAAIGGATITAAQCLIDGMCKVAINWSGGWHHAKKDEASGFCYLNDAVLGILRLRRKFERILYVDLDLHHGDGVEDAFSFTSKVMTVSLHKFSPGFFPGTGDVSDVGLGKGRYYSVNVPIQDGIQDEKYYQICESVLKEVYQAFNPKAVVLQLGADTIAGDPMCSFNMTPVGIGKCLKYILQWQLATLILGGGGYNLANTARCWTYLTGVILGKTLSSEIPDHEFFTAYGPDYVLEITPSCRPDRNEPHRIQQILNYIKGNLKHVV

HDAC11 = target: T4, HDAC11 (Homo sapiens, UniProt Q96DB2); test: as above; assay type: biochemical; conditions: read-out: % inhibition @ 10 uM
T4 construct: purchased BPS Bioscience 50011
T4 sequence (Q96DB2 whole entry): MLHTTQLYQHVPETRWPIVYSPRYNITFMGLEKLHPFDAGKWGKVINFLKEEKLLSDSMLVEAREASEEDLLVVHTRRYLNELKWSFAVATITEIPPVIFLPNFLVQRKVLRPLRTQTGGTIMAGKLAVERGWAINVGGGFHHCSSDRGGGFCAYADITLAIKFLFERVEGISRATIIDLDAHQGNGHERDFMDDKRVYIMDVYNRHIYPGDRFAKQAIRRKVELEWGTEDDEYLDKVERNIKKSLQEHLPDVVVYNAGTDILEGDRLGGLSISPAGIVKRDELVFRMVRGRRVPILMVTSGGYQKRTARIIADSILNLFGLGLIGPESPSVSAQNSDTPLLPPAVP

HDAC4 = target: T5, HDAC4 (Homo sapiens, UniProt P56524); test: as above; assay type: biochemical; conditions: read-out: % inhibition @ 10 uM
T5 construct: purchased BPS Bioscience 50004
T5 sequence (P56524 627-1084 limits assumed): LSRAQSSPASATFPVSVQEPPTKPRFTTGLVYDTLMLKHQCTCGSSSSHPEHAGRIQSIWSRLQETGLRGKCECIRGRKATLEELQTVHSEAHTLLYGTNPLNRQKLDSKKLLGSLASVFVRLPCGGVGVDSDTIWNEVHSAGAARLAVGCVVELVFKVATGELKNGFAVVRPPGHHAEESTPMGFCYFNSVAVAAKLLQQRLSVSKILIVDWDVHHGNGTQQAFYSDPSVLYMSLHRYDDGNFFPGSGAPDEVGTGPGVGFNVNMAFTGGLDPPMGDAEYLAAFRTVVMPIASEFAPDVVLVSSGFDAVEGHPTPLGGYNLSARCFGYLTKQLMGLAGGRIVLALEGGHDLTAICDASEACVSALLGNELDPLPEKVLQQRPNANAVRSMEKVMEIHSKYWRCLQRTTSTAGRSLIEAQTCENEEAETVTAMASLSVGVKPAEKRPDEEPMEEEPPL

HDAC6 = target: T6, HDAC6 (Homo sapiens, UniProt Q9UBN7); test: as above; assay type: biochemical
T6 construct: purchased BPS Bioscience 50006
T6 sequence (Q9UBN7 whole entry): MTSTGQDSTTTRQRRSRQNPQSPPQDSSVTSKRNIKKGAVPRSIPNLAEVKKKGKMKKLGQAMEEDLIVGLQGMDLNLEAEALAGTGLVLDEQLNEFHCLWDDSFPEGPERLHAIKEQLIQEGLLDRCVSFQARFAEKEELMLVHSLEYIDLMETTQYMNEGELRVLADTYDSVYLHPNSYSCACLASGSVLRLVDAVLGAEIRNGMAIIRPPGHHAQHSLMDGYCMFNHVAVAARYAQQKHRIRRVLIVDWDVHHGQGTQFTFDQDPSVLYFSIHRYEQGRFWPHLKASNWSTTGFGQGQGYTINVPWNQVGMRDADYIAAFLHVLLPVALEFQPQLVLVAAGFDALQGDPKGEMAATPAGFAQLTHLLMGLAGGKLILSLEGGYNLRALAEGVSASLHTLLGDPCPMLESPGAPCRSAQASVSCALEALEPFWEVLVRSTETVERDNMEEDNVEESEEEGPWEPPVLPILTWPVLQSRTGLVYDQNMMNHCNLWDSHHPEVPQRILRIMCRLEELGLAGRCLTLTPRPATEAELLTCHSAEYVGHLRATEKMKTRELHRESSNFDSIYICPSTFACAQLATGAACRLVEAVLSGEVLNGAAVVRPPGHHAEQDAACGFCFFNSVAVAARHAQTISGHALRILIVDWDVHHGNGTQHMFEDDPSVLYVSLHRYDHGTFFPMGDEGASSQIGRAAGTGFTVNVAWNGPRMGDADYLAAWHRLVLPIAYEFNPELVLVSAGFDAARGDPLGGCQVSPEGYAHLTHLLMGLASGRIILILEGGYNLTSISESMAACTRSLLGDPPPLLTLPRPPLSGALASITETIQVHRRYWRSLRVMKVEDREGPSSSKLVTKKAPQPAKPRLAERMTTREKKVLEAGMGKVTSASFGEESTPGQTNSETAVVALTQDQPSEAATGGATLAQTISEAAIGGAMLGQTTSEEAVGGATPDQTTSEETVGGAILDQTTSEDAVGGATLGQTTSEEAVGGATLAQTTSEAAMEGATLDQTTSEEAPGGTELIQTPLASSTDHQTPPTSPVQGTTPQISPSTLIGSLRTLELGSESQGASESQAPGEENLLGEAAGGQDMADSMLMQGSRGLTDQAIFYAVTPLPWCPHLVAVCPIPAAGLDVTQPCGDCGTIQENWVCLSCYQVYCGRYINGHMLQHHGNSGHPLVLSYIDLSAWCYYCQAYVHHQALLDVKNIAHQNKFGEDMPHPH

LYXF DLBC SU-DHL-1 = test: Oncotest CellTiter-Blue cell viability assay, 72 hours; assay type: cell-based, human
Experimental: Further studies with varying drug concentrations on selected human cell lines, in most cases those studied in the NCI60 screen, were conducted by Oncotest GmbH laboratories, Freiburg, Germany; Oncotest is a division of Charles River Laboratories. The dissolution procedure for PBZ and the cell culture […] was 72 hours; anti-tumor activity was determined with the CellTiter-Blue® Cell Viability Assay, Promega, Mannheim, Germany. The 50% Inhibitory (IC50) concentrations were determined. The results are the average of duplicate assays. Paclitaxel was included as a reference compound to confirm the integrity of the assays. See S1 Appendix for further details.
“Cell lines were routinely passaged once or twice weekly and maintained in culture for up to 20 passages. Cells were grown at 37°C in a humidified atmosphere with 5% CO2 in RPMI 1640 medium (25 mM HEPES, with L-glutamine, #FG1385, Biochrom, Berlin, Germany) supplemented with 10% (v/v) fetal calf serum (Sigma, Taufkirchen, Germany) and 0.1 mg/mL gentamicin (Life Technologies, Karlsruhe, Germany).”

HDAC5 = target: T7, HDAC5 (Homo sapiens, UniProt Q9UQL6); test: Fluorogenic HDAC deacetylase assay (BPS Bioscience); assay type: biochemical
T7 construct: purchased BPS Bioscience 50005
T7 sequence (Q9UQL6 656-1122 limits assumed): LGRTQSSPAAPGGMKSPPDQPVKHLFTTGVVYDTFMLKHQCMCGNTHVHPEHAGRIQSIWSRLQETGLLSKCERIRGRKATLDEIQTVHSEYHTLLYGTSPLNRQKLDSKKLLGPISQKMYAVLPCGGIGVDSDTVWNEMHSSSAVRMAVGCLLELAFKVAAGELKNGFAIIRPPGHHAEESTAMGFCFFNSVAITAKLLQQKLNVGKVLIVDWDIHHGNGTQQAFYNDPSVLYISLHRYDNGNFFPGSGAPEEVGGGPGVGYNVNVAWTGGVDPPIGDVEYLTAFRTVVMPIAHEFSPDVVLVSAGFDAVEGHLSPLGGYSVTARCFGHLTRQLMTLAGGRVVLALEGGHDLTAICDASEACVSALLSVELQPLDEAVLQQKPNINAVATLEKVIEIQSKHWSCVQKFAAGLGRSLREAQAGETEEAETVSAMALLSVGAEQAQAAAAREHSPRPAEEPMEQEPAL

HDAC9 = target: T8, HDAC9 (Homo sapiens, UniProt Q9UKV0); test: as above; assay type: biochemical
T8 construct: purchased BPS Bioscience 50009

PC-3 = test: NCI60 screen, Sulforhodamine B assay; assay type: cell-based, human; conditions: 10 μM phenoxybenzamine
Experimental: (§2) The results of these studies were included in an application for the screening of PBZ in the National Cancer Institute NCI60 screening program (https://dtp.cancer.gov/discovery_development/nci-60); they measured its effects on growth in cultures of 60 human tumors. This initial screen was conducted at only one drug concentration, 10 μM. We supplied the United States Pharmacopeial reference standard of PBZ-hydrochloride in powder form. The NCI60 standard procedure for dissolution of a synthetic molecule like PBZ involved initial dilution in 9:1 dimethyl sulfoxide (DMSO): glycerol at a concentration of 4 mM; the solution was then diluted 1:200 with complete culture medium (RPMI 1640 medium containing 5% fetal calf serum (FCS), 2 mM L-glutamine and 50 μg/ml gentamicin to give a final concentration of 20 μM; 100 μl of the drug-medium mixture was added to 100 μl of the cell cultures already in complete medium. The microtiter plates were incubated for 48 hr at 37°C, 5% CO2, 95% air, and 100% relative humidity (see S1 Appendix for further details).
as §1

UACC-257 = test: NCI60 screen, Sulforhodamine B assay; assay type: cell-based, human; conditions: 10 μM phenoxybenzamine
Experimental: as §2, §1

OVCAR-8 = test: NCI60 screen, Sulforhodamine B assay; assay type: cell-based, human; conditions: 10 μM phenoxybenzamine
Experimental: as §2, §1

RPMI 8226 = test: NCI60 screen, Sulforhodamine B assay; assay type: cell-based, human; conditions: 10 μM phenoxybenzamine
Experimental: as §2, §1

NCI-H522 = test: NCI60 screen, Sulforhodamine B assay; assay type: cell-based, human; conditions: 10 μM phenoxybenzamine
Experimental: as §2, §1

T47D = test: NCI60 screen, Sulforhodamine B assay; assay type: cell-based, human; conditions: 10 μM phenoxybenzamine
Experimental: as §2, §1

HDAC2 = target: T9, HDAC2 (Homo sapiens, UniProt Q92769); test: biochemical; conditions: read-out: % inhibition @ 10 uM
T9 construct: purchased BPS Bioscience 50002
T9 sequence (Q92769 whole entry): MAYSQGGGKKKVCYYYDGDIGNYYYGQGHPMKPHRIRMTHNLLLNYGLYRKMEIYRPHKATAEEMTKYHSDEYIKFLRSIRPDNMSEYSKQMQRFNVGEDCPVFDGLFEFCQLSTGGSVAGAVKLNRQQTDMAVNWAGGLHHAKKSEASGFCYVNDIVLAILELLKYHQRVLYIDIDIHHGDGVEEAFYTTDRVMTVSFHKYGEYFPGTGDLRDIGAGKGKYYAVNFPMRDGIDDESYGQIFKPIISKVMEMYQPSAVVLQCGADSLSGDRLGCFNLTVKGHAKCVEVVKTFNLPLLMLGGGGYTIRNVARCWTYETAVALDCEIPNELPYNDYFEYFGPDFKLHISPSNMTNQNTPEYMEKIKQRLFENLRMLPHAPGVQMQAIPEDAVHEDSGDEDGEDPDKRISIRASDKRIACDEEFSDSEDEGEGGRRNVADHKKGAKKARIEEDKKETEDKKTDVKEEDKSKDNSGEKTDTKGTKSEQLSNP

[4] = system: cultures of 60 human tumors; test: NCI60 human tumor culture screen, initial study with DMSO dissolution; assay type: cell-based; conditions: initially dissolved in DMSO
Experimental: as §2

HDAC3/NCOR2 = target: T10, HDAC3/NCOR2 (Homo sapiens, UniProt O15379); test: Fluorogenic HDAC deacetylase assay (BPS Bioscience); assay type: biochemical
T10 construct: purchased BPS Bioscience 50003
T10 sequence (O15379 whole entry): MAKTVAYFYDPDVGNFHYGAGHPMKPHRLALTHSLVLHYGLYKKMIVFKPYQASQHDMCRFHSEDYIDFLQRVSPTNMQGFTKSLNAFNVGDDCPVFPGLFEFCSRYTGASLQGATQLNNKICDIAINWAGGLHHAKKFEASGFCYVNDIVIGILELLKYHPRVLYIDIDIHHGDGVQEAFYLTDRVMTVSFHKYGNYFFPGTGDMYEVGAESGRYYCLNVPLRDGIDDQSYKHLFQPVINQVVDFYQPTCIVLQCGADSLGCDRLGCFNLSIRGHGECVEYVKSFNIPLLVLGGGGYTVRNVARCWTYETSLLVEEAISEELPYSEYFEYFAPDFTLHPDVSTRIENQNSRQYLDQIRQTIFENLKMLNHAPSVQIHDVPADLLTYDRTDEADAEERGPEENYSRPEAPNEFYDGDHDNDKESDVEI
T10 sequence (Q9Y618 395-489 partner limits assumed): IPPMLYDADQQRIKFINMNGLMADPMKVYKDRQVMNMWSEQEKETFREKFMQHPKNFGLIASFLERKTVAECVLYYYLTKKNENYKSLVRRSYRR

HDAC7 = target: T11, HDAC7 (Homo sapiens, UniProt Q8WUI4); test: as above; assay type: biochemical
T11 construct: purchased BPS Bioscience 50007
T11 sequence (Q8WUI4 518-952 limits assumed): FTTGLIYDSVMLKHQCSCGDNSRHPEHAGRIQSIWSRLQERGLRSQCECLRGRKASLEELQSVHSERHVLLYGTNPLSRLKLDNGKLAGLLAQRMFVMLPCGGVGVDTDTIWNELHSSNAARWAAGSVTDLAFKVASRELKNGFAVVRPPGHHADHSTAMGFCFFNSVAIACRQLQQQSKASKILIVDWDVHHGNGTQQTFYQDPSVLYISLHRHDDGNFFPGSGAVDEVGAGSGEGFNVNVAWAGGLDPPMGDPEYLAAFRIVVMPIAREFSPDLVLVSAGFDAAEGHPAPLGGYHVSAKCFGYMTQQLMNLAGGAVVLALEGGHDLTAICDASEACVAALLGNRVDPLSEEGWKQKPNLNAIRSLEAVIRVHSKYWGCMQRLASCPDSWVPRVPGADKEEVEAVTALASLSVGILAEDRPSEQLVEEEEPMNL

[5] = LYXF SU-DHL-1, 1% FCS, study P495C
[6] = LYXF SU-DHL-1, 10% FCS, study P495B

In the case of CC(COc1ccccc1)N(CCCl)Cc1ccccc1 (stereo not shown) [PBZ, phenoxybenzamine], the inhibition at 10 µM (HDAC10) is listed as 0%, the “expansion of tumor volume in vivo” value [1] is listed as “marked reduction in expansion of tumor volume” and the inhibition at 10 µM (HDAC1) is listed as 16%. The “reversing the heightened pain sensitivity of the CFA-affected animals” value (CFA-affected animals) was “equipotent with the nonsteroidal anti-inflammatory drug, naproxen”, the “decrease in right-ventricular hypertrophy” value [2] was 69% and the “inhibition in the increase in medial thickening of pulmonary arteries” value [2] was 80%. For the same compound, the aqueous solubility [3] was “adequate aqueous solubility”, the “% inhibition @ 10 uM” value (HDAC8; HDAC8, 10 µM) was ~30% and the inhibition at 10 µM (HDAC8; read-out: % inhibition @ 10 uM, HDAC8) was 34%. For the same compound, the inhibition at 10 µM (HDAC11) was 0%, the inhibition at 10 µM (HDAC4) was 25% and the IC50 (HDAC6) was 0.59 µM. For the same compound, the IC50 (LYXF DLBC SU-DHL-1; Homo sapiens, LYXFDLBC SU-DHL-1 Lymphoma, 1% FCS) was 29.5 µM, the “Test/Control (%) at Drug Concentration [uM] 1,0E+00” value (LYXF DLBC SU-DHL-1; [5]) was 97% and the “Test/Control (%) at Drug Concentration [uM] 1,0E+01” value (LYXF DLBC SU-DHL-1; [5]) was 91%. The “Test/Control (%) at Drug Concentration [uM] 1,0E+02” value (LYXF DLBC SU-DHL-1; [5]) was 7%, the “Test/Control (%) at Drug Concentration [uM] 3,2E+00” value (LYXF DLBC SU-DHL-1; [5]) was 96% and the “Test/Control (%) at Drug Concentration [uM] 3,2E+01” value (LYXF DLBC SU-DHL-1; [5]) was 45%. For the same compound, the “Test/Control (%) at Drug Concentration [uM] 1,0E+00” value (LYXF DLBC SU-DHL-1; [6]) was 98%, the “Test/Control (%) at Drug Concentration [uM] 1,0E+01” value (LYXF DLBC SU-DHL-1; [6]) was 100% and the “Test/Control (%) at Drug Concentration [uM] 1,0E+02” value (LYXF DLBC SU-DHL-1; [6]) was 0%. The “Test/Control (%) at Drug Concentration [uM] 1,0E-01” value (LYXF DLBC SU-DHL-1; [6]) was 100%, the “Test/Control (%) at Drug Concentration [uM] 1,0E-02” value (LYXF DLBC SU-DHL-1; [6]) was 100% and the “Test/Control (%) at Drug Concentration [uM] 1,0E-03” value (LYXF DLBC SU-DHL-1; [6]) was 100%. The “Test/Control (%) at Drug Concentration [uM] 3,2E+00” value (LYXF DLBC SU-DHL-1; [6]) was 100%, the “Test/Control (%) at Drug Concentration [uM] 3,2E+01” value (LYXF DLBC SU-DHL-1; [6]) was 94% and the IC50 (HDAC5) was 9.8 µM. The IC50 (HDAC9) was 5.3 µM, the “Percent cell growth in NCI60 screen with 5% FCS (48 hr incubation)” value (PC-3) was 63% and the “Percent cell growth in NCI60 screen with 5% FCS (48 hr incubation)” value (UACC-257) was 76%. The “Percent cell growth in NCI60 screen with 5% FCS (48 hr incubation)” value (OVCAR-8) was 53%, the “Percent cell growth in NCI60 screen with 5% FCS (48 hr incubation)” value (RPMI 8226) was 60% and the “Percent cell growth in NCI60 screen with 5% FCS (48 hr incubation)” value (NCI-H522) was 73%. The “Percent cell growth in NCI60 screen with 5% FCS (48 hr incubation)” value (T47D) was 60%, the inhibition at 10 µM (HDAC2) was 0% and the “biological effect in NCI60 screen” value [4] was “essentially no biological effect”. For the same compound, the “% inhibition @ 10 uM” value (HDAC3/NCOR2; HDAC3/NCOR2, 10 µM) was ~30%, the inhibition at 10 µM (HDAC3/NCOR2; read-out: % inhibition @ 10 uM, HDAC3/NCOR2) was 31% and the “% inhibition @ 10 uM” value (HDAC7; HDAC7, 10 µM) was ~30%. The inhibition at 10 µM (HDAC7; read-out: % inhibition @ 10 uM, HDAC7) was 34%.

Source: PMC5999115, “Anti-tumor activity of phenoxybenzamine and its inhibition of histone deacetylases” (PLoS ONE, 2018)
